One assay relates to PBD. As to conditions: cited from earlier work.
In another assay the test system is HeLa cells. Put plainly: MTT assay. The assay is classed as cell-based. To be noted: Homo sapiens, 48 h, read-out: Cytotoxicity (HeLa cells).

Consider two compounds from publication PMC9428768 (RSC Chemical Biology, 2022).

With PLHSpT [Ligand 1], the “less PBD-binding affinity than peptide 2” value in the assay on PBD is recorded as “approximately 1000 fold”.

For `CC[C@@H]1C(=O)N(C)c2cnc(Nc3ccc(C(=O)NC4CCN(C)CC4)cc3OC)nc2N1C1CCCC1` [BI2536], the IC50 in the assay on HeLa cells was 32 ± 1.6 nM.
